# Results reported in patent US10730848B2 (priority 2013, dated 2020).
# pIC50: −log10 of the molar value. Entries after “also recorded” stand apart in the source; their conditions may differ. Read-outs that look alike come from different tables or passages of the source.
# Assays:
# [1] = tested on: anthrax lethal toxin (LT); test: cells; format: cell-based, murine; conditions: for pIC50 / IC50: Mus musculus; for IC50: RAW264.7, read-out: IC50 (In uM)
# [2] = tested on: anthrax lethal toxin (LT); format: cell-based, mice
# MEK2 = format: cell-based, murine
# PA+LFnDTA = format: cell-based
# caspase-1 = format: cell-based, mice
# PA = format: cell-based
# Diphtheria toxin = format: cell-based
# [3] = tested on: exotoxin A from Pseudomonas aeruginosa (ExoA); format: cell-based
# [4] = tested on: VSV-pseudotyped lentivirus; format: cell-based
# [5] = tested on: Nipah-pseudotyped lentivirus; format: cell-based
# [6] = tested on: GFP-expressing Armstrong variant of LCMV; format: cell-based
# influenza A/WSN/33 virus = format: cell-based
# acidic compartments = format: cell-based
# EGFR = format: cell-based
# EGF = format: cell-based
# transferrin (Tf) = format: cell-based
# THP-1 cells = format: cell-based, human
# F. tularensis LVS = format: cell-based
# LT [7] = conditions: rat, in vivo
# [8] = tested on: anthrax lethal toxin (LT); format: cell-based
# LT [9] = conditions: read-out: IC50 of previously reported toxin entry inhibitors; cited from earlier work
# [10] = RAW264.7, read-out: IC50, inhibition of LT-induced cell death
compound,measurement,setting,value
"Cc1cccc(C)c1NC(=O)N/N=C/c1ccc(Br)cc1 [Compound 1, N^1-(4-BROMOBENZYLIDENE)-N^4-(2,6-DIMETHYLPHENYL)SEMICARBAZONE]","rescued viability, of unintoxicated controls",[1],up to 100%
same,time after LT at which addition still completely protects cells from killing,[1],up to 15 minutes
same,pIC50,[1]; RAW264.7,5.85
same,IC50,[1],1.27 µM
same,pIC50,[1]; [10],5.85
same,pIC50,"[1]; RAW264.7, read-out: IC50 in cell-based LT intoxication experiments",5.85
same,protection of BMDMs from killing by LT,[2],protected
same,LT-mediated cleavage of MEK2,MEK2,inhibits LT-mediated cleavage of MEK-2; also recorded: completely abrogated
same,protection from PA+LFnDTA,PA+LFnDTA,Protects Cells from PA+LFnDTA; also recorded: resistant
same,LT-mediated caspase-1 activation,caspase-1,inhibits LT-mediated caspase-1 activation; also recorded: active caspase-1 was not detected
same,binding of PA83 to cells or proteolytic processing to PA63,PA,did not block
same,protection of HeLa cells from DT,Diphtheria toxin,effectively protected
same,protection of HeLa cells from ExoA,[3],effectively protected
same,infection by VSV-G pseudotyped virus,[4],Inhibits Infection by Low pH-dependent VSV-pseudotyped lentivirus; also recorded: effectively inhibited; also recorded: neutralized
same,infection by Nipah-pseudotyped lentivirus,[5],Does Not Inhibit Infection; also recorded: did not inhibit
same,acute LCMV infection,[6],Reduces Acute LCMV Infection; also recorded: decreased the total number of cells infected and the amount of virus being produced
same,influenza virus infection (reporter activation),influenza A/WSN/33 virus,Inhibits Entry of Influenza virus; also recorded: completely inhibited infection; also recorded: partial protection
same,cell-associated Lysotracker Red fluorescence (neutralization of acidic compartments),acidic compartments,Does Not Neutralize Acidic Compartments; also recorded: did not reduce
same,EGFR degradation at early times post EGF stimulation,EGFR; 15-30 min,Slows EGFR-Degradation at 15 Minutes; also recorded: significantly less EGFR degraded at 30 min
same,EGF retention in EEA1-positive endosomes,EGF,Results in EGF Retention in EEA1+ Endosomes; also recorded: retained in enlarged endosomes
same,stabilization of EGF,EGF,stabilized EGF up to 60 min
same,transferrin recycling to the cell surface,transferrin (Tf),Does Not Inhibit Transferrin Receptor Recycling to the Plasma Membrane; also recorded: had no affect
same,trafficking of Texas-red dextran to phagosomes,THP-1 cells,Does Not Block Texas Red-Dextran Trafficking to Phagosomes; also recorded: Neither EGA nor bafilomycin A1 inhibited
same,phagocytic uptake of F. tularensis LVS,F. tularensis LVS,Does Not Block Phagocytic Uptake of F. tularensis; also recorded: Neither EGA nor bafilomycin A1 blocked
same,HdCDT localization in EEA-1-positive vesicles,HdCDT,Traps HdCDT in Enlarged EEA-1-Positive Vesicles
same,cytotoxicity induced by Hd-CDT,HdCDT,Inhibits cytotoxicity induced by Hd-CDT
same,intoxication (cell cycle arrest) by EcCDT,EcCDT,did not inhibit intoxication
same,tolerability,LT [7],well tolerated in rats
"Cc1cccc(C)c1NC(=O)N/N=C/c1ccc(N=[N+]=[N-])cc1F [Compound 3, N^1-(4-AZIDO-2-FLUOROBENZYLIDENE)-N^4-(2,6-DIMETHYLPHENYL)SEMICARBAZONE]",pIC50,[1]; [10],5.66
same,protection against LT after UV irradiation and washout (media exchange),[8],did not provide protection; also recorded: did not offer statistically significant protection
"Cc1cccc(C)c1NC(=O)N/N=C/c1ccc(N=[N+]=[N-])cc1 [Compound 4, N^1-(4-AZIDOBENZYLIDENE)-N^4-(2,6-DIMETHYLPHENYL)SEMICARBAZONE]",pIC50,[1]; RAW264.7,5.55
same,IC50,[1],2.82 µM
same,pIC50,[1]; [10],~5.52
same,protection against LT after UV irradiation and washout (media exchange),[8],retained viability; also recorded: statistically significant protection; also recorded: conferred irreversible resistance to LT
"Cc1cccc(C)c1NC(=O)N/N=C/c1c(F)c(F)c(N=[N+]=[N-])c(F)c1F [Compound 5, N^1-(4-AZIDO-2,3,5,6-TETRAFLUOROBENZYLIDENE)-N^4-(2,6-DIMETHYLPHENYL)SEMICARBAZONE]",protection of cells from LT (in words),[1],poor inhibitor; also recorded: only weakly protective
same,protection against LT after UV irradiation and washout (media exchange),[8],statistically significant protection; also recorded: most effective irreversible protection; also recorded: conferred irreversible resistance to LT
"C#CCN(/N=C/c1ccc(N=[N+]=[N-])cc1)C(=O)Nc1c(C)cccc1C [Compound 28, 2-(4-Azidobenzylidene)-N-(2,6-dimethylphenyl)-1-(prop-2-yn-1-yl)hydrazinecarboxamide]",protection of cells from LT (in words),[1],did not offer any protection
same,pIC50,[1]; RAW264.7,< 4.60
"Cl.N [ammonium chloride, reference compound]",cell-associated Lysotracker Red fluorescence (neutralization of acidic compartments),acidic compartments,markedly decreased
same,EGFR stabilization at 60 minutes,EGFR,inhibit EGF-induced receptor degradation
same,pIC50,LT [9],2.30
CCN(CC)CCCC(C)Nc1ccnc2cc(Cl)ccc12 (stereo not drawn) [chloroquine],pIC50,LT [9],4.00
"CCOC(=O)C1=C[C@@H](OC(CC)CC)[C@H](NC(C)=O)[C@@H](N)C1 [oseltamivir, reference compound]",influenza virus infection (reporter activation),influenza A/WSN/33 virus,exhibited no protection
CCN(CC)CCCC(C)Nc1c2ccc(Cl)cc2nc2ccc(OC)cc12 (stereo not drawn) [quinacrine],pIC50,LT [9],4.40
"NC(=O)c1ncn([C@@H]2O[C@H](CO)[C@@H](O)[C@H]2O)n1 [ribavirin, reference compound]",influenza virus infection (reporter activation),influenza A/WSN/33 virus,effectively blocked reporter activation
bafilomycin A1 [reference compound],cell-associated Lysotracker Red fluorescence (neutralization of acidic compartments),acidic compartments,markedly decreased
same,trafficking of Texas-red dextran to phagosomes,THP-1 cells,Neither EGA nor bafilomycin A1 inhibited
same,phagocytic uptake of F. tularensis LVS,F. tularensis LVS,Neither EGA nor bafilomycin A1 blocked
